Test results taken from patent US12077503B2, “Substituted cyclic amides and their use as herbicides” (FMC CORPORATION, priority 2015, dated 2024).

What was measured:
Assay type in all cases: in vivo
[1] = test system: barnyardgrass (Echinochloa crus-galli); assay: Test G Pre-Emergence Protocol; conditions: Echinochloa crus-galli, pre-emergence, 312 h, evaluated after 13 days
Method in brief: (§1)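 One day after sowing, pots are treated with a spray of test compound formulated in acetone/water 50:50 plus 0.5% Tween 20, giving 15.625, 62.5 or 250 g/ha. Evaluation on a 0–100 damage scale follows 13 days of glasshouse growth.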

corn (Zea mays) [2] = assay: Test G Pre-Emergence Protocol; conditions: Zea mays, pre-emergence, 312 h, evaluated after 13 days
Method in brief: as §1

[3] = test system: giant foxtail (Setaria faberi); assay: Test G Pre-Emergence Protocol; conditions: Setaria faberi, pre-emergence, 312 h, evaluated after 13 days
Method in brief: as §1

[4] = test system: ivy-leaved morning glory (Ipomoea hederacea); assay: Test G Pre-Emergence Protocol; conditions: Ipomoea, pre-emergence, 312 h, evaluated after 13 days
Method in brief: as §1

[5] = test system: redroot pigweed (Amaranthus retroflexus); assay: Test G Pre-Emergence Protocol; conditions: Amaranthus retroflexus, pre-emergence, 312 h, evaluated after 13 days
Method in brief: as §1

[6] = test system: velvetleaf (Abutilon theophrasti); assay: Test G Pre-Emergence Protocol; conditions: Abutilon theophrasti, pre-emergence, 312 h, evaluated after 13 days
Method in brief: as §1

[7] = test system: barnyardgrass (Echinochloa crus-galli); assay: Test G Post-Emergence Protocol; conditions: Echinochloa crus-galli, post-emergence, 312 h, read-out: Barnyardgrass damage rating
Method in brief: (§2)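 Sow in soil; grow 8 d (24/16 °C, 14 h light, 65% humidity); spray 15.625/62.5/250 g/ha in acetone:water 50:50 + 0.5% Tween 20; grow on, water twice daily; score damage 0–100 at 13 d.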

corn (Zea mays) [8] = assay: Test G Post-Emergence Protocol; conditions: Zea mays, post-emergence, 312 h, read-out: Corn damage rating
Method in brief: as §2

[9] = test system: giant foxtail (Setaria faberi); assay: Test G Post-Emergence Protocol; conditions: Setaria faberi, post-emergence, 312 h, read-out: Foxtail, Giant damage rating
Method in brief: as §2

[10] = test system: ivy-leaved morning glory (Ipomoea hederacea); assay: Test G Post-Emergence Protocol; conditions: Ipomoea, post-emergence, 312 h, read-out: Morningglory, Ivy-leaved damage rating
Method in brief: as §2

[11] = test system: redroot pigweed (Amaranthus retroflexus); assay: Test G Post-Emergence Protocol; conditions: Amaranthus retroflexus, post-emergence, 312 h, read-out: Pigweed, Redroot damage rating
Method in brief: as §2

[12] = test system: velvetleaf (Abutilon theophrasti); assay: Test G Post-Emergence Protocol; conditions: Abutilon theophrasti, post-emergence, 312 h, read-out: Velvetleaf damage rating
Method in brief: as §2

[13] = 15.625 g ai/ha, evaluated after 13 days (100=total damage to plant; 0=no damage to plant)
[14] = 62.5 g ai/ha, evaluated after 13 days, 100=total damage to plant, 0=no damage to plant
[15] = 250 g ai/ha, evaluated after 13 days, 100=total damage to plant, 0=no damage to plant

CC(C)Oc1cc(OC(F)(F)F)cc(C2CN(C)C(=O)C2C(=O)Nc2cccc(F)c2F)c1 (stereo not drawn) [Compound 1726]
50%: pest or weed control at 62.5 g/ha ([1]; 62.5 g ai/ha, 100=total damage to plant, 0=no damage to plant, read-out: Barnyardgrass damage rating) | pest or weed control at 62.5 g/ha ([3]; 62.5 g ai/ha, 100=total damage to plant, 0=no damage to plant, read-out: Foxtail, Giant damage rating)
70%: pest or weed control at 250 g/ha ([1]; 250 g ai/ha, read-out: Barnyardgrass damage rating (100=total damage to plant; 0=no damage to plant)) | pest or weed control at 250 g/ha [7, 15] | plant injury at 250 g/ha (corn (Zea mays) [8]; [15]) | pest or weed control at 62.5 g/ha [9, 14] | pest or weed control at 250 g/ha [9, 15] | pest or weed control at 250 g/ha [10, 15]
0%: pest or weed control at 15.625 g/ha ([1]; 15.625 g ai/ha, read-out: Barnyardgrass damage rating (100=total damage to plant; 0=no damage to plant)) | plant injury at 15.625 g/ha (corn (Zea mays) [2]; 15.625 g ai/ha, read-out: Corn damage rating (100=total damage to plant; 0=no damage to plant)) | plant injury at 62.5 g/ha (corn (Zea mays) [2]; 62.5 g ai/ha, 100=total damage to plant, 0=no damage to plant, read-out: Corn damage rating) | pest or weed control at 15.625 g/ha ([4]; 15.625 g ai/ha, read-out: Morningglory, Ivy-leaved damage rating (100=total damage to plant; 0=no damage to plant)) | pest or weed control at 62.5 g/ha ([4]; 62.5 g ai/ha, 100=total damage to plant, 0=no damage to plant, read-out: Morningglory, Ivy-leaved damage rating) | pest or weed control at 250 g/ha ([4]; 250 g ai/ha, read-out: Morningglory, Ivy-leaved damage rating (100=total damage to plant; 0=no damage to plant)) | pest or weed control at 15.625 g/ha ([5]; 15.625 g ai/ha, read-out: Pigweed, Redroot damage rating (100=total damage to plant; 0=no damage to plant)) | pest or weed control at 62.5 g/ha ([5]; 62.5 g ai/ha, 100=total damage to plant, 0=no damage to plant, read-out: Pigweed, Redroot damage rating) | pest or weed control at 15.625 g/ha ([6]; 15.625 g ai/ha, read-out: Velvetleaf damage rating (100=total damage to plant; 0=no damage to plant)) | pest or weed control at 62.5 g/ha ([6]; 62.5 g ai/ha, 100=total damage to plant, 0=no damage to plant, read-out: Velvetleaf damage rating) | pest or weed control at 250 g/ha ([6]; 250 g ai/ha, read-out: Velvetleaf damage rating (100=total damage to plant; 0=no damage to plant)) | pest or weed control at 15.625 g/ha [7, 13] | pest or weed control at 15.625 g/ha [9, 13] | pest or weed control at 62.5 g/ha [11, 14] | pest or weed control at 15.625 g/ha [12, 13] | pest or weed control at 62.5 g/ha [12, 14]
30%: plant injury at 250 g/ha (corn (Zea mays) [2]; 250 g ai/ha, read-out: Corn damage rating (100=total damage to plant; 0=no damage to plant)) | pest or weed control at 62.5 g/ha [7, 14] | plant injury at 62.5 g/ha (corn (Zea mays) [8]; [14])
40%: pest or weed control at 250 g/ha [11, 15]
80%: pest or weed control at 250 g/ha ([3]; 250 g ai/ha, read-out: Foxtail, Giant damage rating (100=total damage to plant; 0=no damage to plant))
20%: pest or weed control at 15.625 g/ha [11, 13] | pest or weed control at 250 g/ha [12, 15]
10%: pest or weed control at 15.625 g/ha ([3]; 15.625 g ai/ha, read-out: Foxtail, Giant damage rating (100=total damage to plant; 0=no damage to plant)) | pest or weed control at 250 g/ha ([5]; 250 g ai/ha, read-out: Pigweed, Redroot damage rating (100=total damage to plant; 0=no damage to plant)) | plant injury at 15.625 g/ha (corn (Zea mays) [8]; [13]) | pest or weed control at 15.625 g/ha [10, 13] | pest or weed control at 62.5 g/ha [10, 14]
